Activity calls are given as the source filed them. The rule behind the calls is not given here.
Columns and labels:
[1] = system: Bacillus subtilis; experiment: Antimicrobial activity against Bacillus subtilis at 200 ug/disk; type: functional, organism-based
[2] = Cytotoxicity against human NCI60 cells; type: functional

For `CC(C)=CC[C@@]12C[C@@H]3C(=O)O[C@H](CC(C)C)C(=O)N3[C@@H]1Nc1ccccc12` [MOLLENINE A], the Activity [1] was “Active” and the GI50 [2] was 31 µM.

Source: ChEMBL document CHEMBL1150908, “Mollenines A and B: new dioxomorpholines from the ascostromata of Eupenicillium molle” (1998)
